Reference: patent publication US20090036384A1, “INCREASING PREGNANCY RATES” (PARNELL LABORATORIES (AUST) PTY LIMITED, priority 2005, published 2009)
Read-outs that look alike come from different tables or passages of the source.

Columns and labels:
LH [1] = conditions: in vivo; cited from earlier work
LH [2] = conditions: exogenous GnRH; cited from earlier work
cows [3] = conditions: cited from earlier work
[4] = literature study; cited from earlier work
cows [5] = conditions: cited from earlier work; remark: listed apart in the source
[6] = Progesterone solubility trials; format: physicochemical
Experimental: The purpose of the formulation studies was to establish a product vehicle that was suitable for solubilisation of a relatively high concentration of Progesterone but in which Gonadorelin would be stable. […] Low solubility of Progesterone (even in organic solvents) further limited the choice of injectable organic vehicles.
Further Solubility Trials were conducted as follows: […]

[7] = Progesterone solubility and precipitation at low temperature (2-8° C.); format: physicochemical; conditions: solubility study; most appropriate combination
Experimental: Since addition of acids reduced the amount of NMP available for dissolution of Progesterone, samples prepared with different acids were refrigerated at 2-8° C. to investigate progesterone solubility and the occurrence of precipitation at low temperatures. The appearance of crystals in samples prepared with formic and hydrochloric acid was obvious after several hours of refrigeration. Crystals appeared after 1-2 days in samples prepared with phosphoric acid. FTIR testing confirmed that the precipitate was crystalline progesterone, which was difficult to redissolve due to the crystalline form of the precipitate. At this stage a further search for vehicle that would provide sufficient progesterone solubility at low temperatures was conducted. […] A solubility study confirmed that the most appropriate combination was NMP+water+phosphoric acid with progesterone amount not exceeding 8-10% w/v.

For `C[C@]12CC[C@@H]3c4ccc(O)cc4CC[C@H]3[C@@H]1CC[C@@H]2OC(=O)CCC1CCCC1` [ECP, Estradiol Cypionate], the “time of LH surge after administration” value (LH [1]) is listed as “around 40 hours”.
For `CC(C)C[C@H](NC(=O)CNC(=O)[C@H](Cc1ccc(O)cc1)NC(=O)[C@H](CO)NC(=O)[C@H](Cc1c[nH]c2ccccc12)NC(=O)[C@H](Cc1cnc[nH]1)NC(=O)[C@@H]1CCC(=O)N1)C(=O)N[C@@H](CCCNC(=N)N)C(=O)N1CCC[C@H]1C(=O)NCC(N)=O` [GnRH], the “duration of GnRH-induced LH surge” value (LH [2]) is given as 7 to 14 h, the “peak serum levels of LH” value (LH [2]) is given as 9 to 22 ng/mL and the ovulation rate (cows [3]; 25 μg of GnRH) is given as “dramatic reduction in ovulation rates”. For the same compound, the ovulation rate (cows [3]; 50 μg of GnRH) was “identical ovulation rate to 100 μg”.
In the case of `CN1CCCC1=O` [NMP, N-methyl-2-pyrrolidone], the “pH of NMP” value [4] is given as “approximately 11.5”.
For `CC(=O)[C@H]1CC[C@H]2[C@@H]3CCC4=CC(=O)CC[C@]4(C)[C@H]3CC[C@]12C` [Progesterone], the “average serum progesterone levels” value (cows [5]; beef cows primed via a used CIDR implant) is given as 1.5 ng/mL, the “serum Progesterone levels that provide effective biological activity” value (cows [5]; in vivo) is given as 1-3 ng/mL and the follicle size (cows [5]; three days of progesterone treatment) is given as 13.7 mm. The “Solubility of Progesterone” value ([6]; pure solvent PEG400) was “marginal”, the “Solubility of Progesterone” value ([6]; pure solvent Propylene Glycol) was “marginal” and the “Solubility of Progesterone” value ([6]; pure solvent Tetraglycol) was “marginal”. The “progesterone amount in NMP+water+phosphoric acid” value [7] was 8-10 % w/v.
